Test results from patent publication US10179355B2, “Bioremediation enhancing agents and methods of use” (JRW BIOREMEDIATION, LLC, priority 2007, dated 2019).

System: dechlorinating bacteria known to convert PCE to ethene
Experiment: Set A: Ladder of YM, PCE dechlorination microcosms (kinetics, Relative Rate, paired t-test)
Type: cell-based, Dehalococcoides and Dehalobacter spp.
Excerpt: Certain contaminated materials (or sites) may contain indigenous microbial communities that are sufficient for complete bioremediation of contaminants. For such sites, there is no need to add microbes unless the indigenous microbes are genetically deficient in achieving the desired clean-up goals. For those sites that are microbiologically limited, microorganisms may be added to the contaminated materials (or sites). In one embodiment, the inoculum may be a mixed culture of halo-respiring bacteria that have been enriched to reach an optimal cell density. These mixed cultures of halo-respiring bacteria may be typically obtained from sediment samples from rivers, streams or any waterways. More specifically, the inoculum used in the Examples was originated from a Sangamon River sediment sample (Lodge Park, Piatt County, Ill.) See, e.g., Brennan, R. A., Sanford, R. A. and Werth, C. J. (2006). “Biodegradation of Tetrachloroethene by Chitin Fermentation Products in a Continuous Flow Column System.” Journal of Environ. Engr., June 665-673. This culture had grown for several years on PCE, anaerobic basal salts medium, Wolfe's vitamin solution and various electron donors including lactate (1-2 millimolar (mM)), formate (4 mM) and chitin using the Volatile Interface Transfer Apparatus (VITA) reactor system at the University of Illinois. Brennan, R. A., and Sanford, R. A. (2002). “Continuous steady-state method using Tenax for delivering tetrachloroethene to chlororespiring bacteria.” Appl. Environ. Microbiol., 68(3), 1464-1467. […] Using 16S rRNA gene-specific primers, both Dehalococcoides and Dehalobacter spp. were detected. Quantitative real-time PCR has been used to determine that approximately 1.65×10^7 Dehalococcoides gene copies were present per ml of culture.
For purpose of this disclosure, each bottle may be started with a certain amount of PCE. At subsequent times each bottle may be sampled for the degradation daughter products of PCE, namely trichloroethene (TCE), cis-dichloroethene (DCE), vinyl chloride (VC) and ethene, etc. Trans-DCE and 1,1-DCE are also daughter products of PCE, but they may not be detectable under the conditions disclosed here.
The rate of degradation may be determined by calculating the number of pmoles of chloride ions removed from PCE and subsequently from the amounts of the daughter products generated. The calculation may be performed as follows: Chloride (μmoles)=[…]−4×PCE (μmoles)−3×TCE (pmoles)−2×DCE (μmoles)−VC (μmoles)
The alternative chloride calculation is: Chloride (μmoles)=TCE (μmoles)+2×DCE (μmoles)+3×VC (μmoles)+4×Ethene (μmoles)
Next, the dechlorination rate may be determined for each bottle at each time by dividing the Chloride generated by the time (days). The data may be then normalized to the lactate control by taking the ratio of Chloride Rate (pmoles/day) and the Lactate Control Chloride Rate (pmoles/day). This ratio is called Relative Rate and is dimensionless.
As shown in the Examples, a paired t-test has been conducted to calculate the probability that the Relative Rate of one group (i.e. with Nutrient) is greater than the other group (i.e. without Nutrient). The null hypothesis is that the underlying means of the two paired groups are equal. The Probability that one group has higher Relative Rates than the other group is shown in various tables in the Examples.
The following components were used in the system for bioremediating contaminated ground water microcosms in Examples 2-8: • 160 milliliter (ml) stoppered serum bottles • 100 ml of anaerobic culture medium, groundwater containing an excess of bioavailable phosphorus and nitrogen at 0.5 mM Phosphate and 1 mM ammonium degassed with a nitrogen sparge • Nominally 1 gram of limestone • 19.54 micromoles (pmoles) Perchloroethene (PCE) • An excess of various electron donors were utilized • 3 ml of inoculum containing dechlorinating bacteria known to convert PCE to ethene. […]

For `CC(O)C(=O)[O-].[Na+]` (centres unmarked) [Lactate Control, sodium lactate], the “Average Relative Rate” value was 1.00, the “Cl^− Rate ± s.d.” value (0 days) was 0.00 ± 0.00 µmol and the “Cl^− ± s.d.” value (0 days) was 0.00 ± 0.00 µmol. For the same compound, the “DCE ± s.d.” value (0 days) was 0.00 ± 0.00 µmol, the “Ethene ± s.d.” value (0 days) was 0.00 ± 0.00 µmol and the “PCE ± s.d.” value (0 days) was 19.54 ± 0.00 µmol. For the same compound, the “TCE ± s.d.” value (0 days) was 0.00 ± 0.00 µmol, the “VC ± s.d.” value (0 days) was 0.00 ± 0.00 µmol and the “Cl^− Rate ± s.d.” value (14 days) was 2.58 ± 0.17 µmol. For the same compound, the “Cl^− ± s.d.” value (14 days) was 36.18 ± 2.43 µmol, the “DCE ± s.d.” value (14 days) was 0.42 ± 0.03 µmol and the “Ethene ± s.d.” value (14 days) was 0.00 ± 0.00 µmol. For the same compound, the “PCE ± s.d.” value (14 days) was 8.45 ± 0.55 µmol, the “TCE ± s.d.” value (14 days) was 2.00 ± 0.04 µmol and the “VC ± s.d.” value (14 days) was 1.33 ± 0.41 µmol. The “Cl^− Rate ± s.d.” value (35 days) was 1.33 ± 0.15 µmol, the “Cl^− ± s.d.” value (35 days) was 46.47 ± 5.25 µmol and the “DCE ± s.d.” value (35 days) was 1.60 ± 0.82 µmol. For the same compound, the “Ethene ± s.d.” value (35 days) was 0.33 ± 0.29 µmol, the “PCE ± s.d.” value (35 days) was 4.08 ± 0.81 µmol and the “TCE ± s.d.” value (35 days) was 2.77 ± 0.47 µmol. The “VC ± s.d.” value (35 days) was 3.86 ± 2.11 µmol, the “Cl^− Rate ± s.d.” value (53 days) was 1.06 ± 0.06 µmol and the “Cl^− ± s.d.” value (53 days) was 56.17 ± 3.17 µmol. For the same compound, the “DCE ± s.d.” value (53 days) was 5.31 ± 1.00 µmol, the “Ethene ± s.d.” value (53 days) was 0.78 ± 0.79 µmol and the “PCE ± s.d.” value (53 days) was 0.33 ± 0.27 µmol. The “TCE ± s.d.” value (53 days) was 0.52 ± 0.47 µmol, the “VC ± s.d.” value (53 days) was 8.52 ± 6.24 µmol and the “Relative Rate” value (bottle 1, 14 days) was 0.92. The “Relative Rate” value (bottle 1, 35 days) was 1.11, the “Relative Rate” value (bottle 1, 53 days) was 0.96 and the “Relative Rate” value (bottle 2, 14 days) was 1.02. The “Relative Rate” value (bottle 2, 35 days) was 1.00, the “Relative Rate” value (bottle 2, 53 days) was 1.06 and the “Relative Rate” value (bottle 3, 14 days) was 1.05. The “Relative Rate” value (bottle 3, 35 days) was 0.89 and the “Relative Rate” value (bottle 3, 53 days) was 0.98.
